{"source": "paper PMC11272598", "about": "“RG7774 (Vicasinabin), an orally bioavailable cannabinoid receptor 2 (CB2R) agonist, decreases retinal vascular permeability, leukocyte adhesion, and ocular inflammation in animal models” (Frontiers in Pharmacology, 2024)", "assay_in_all_cases": "CEREP radioligand binding", "key": {"H2 (h)": {"biological_target": "H2 (h) (Homo sapiens, UniProt P25021)", "sequence (P25021 whole entry)": "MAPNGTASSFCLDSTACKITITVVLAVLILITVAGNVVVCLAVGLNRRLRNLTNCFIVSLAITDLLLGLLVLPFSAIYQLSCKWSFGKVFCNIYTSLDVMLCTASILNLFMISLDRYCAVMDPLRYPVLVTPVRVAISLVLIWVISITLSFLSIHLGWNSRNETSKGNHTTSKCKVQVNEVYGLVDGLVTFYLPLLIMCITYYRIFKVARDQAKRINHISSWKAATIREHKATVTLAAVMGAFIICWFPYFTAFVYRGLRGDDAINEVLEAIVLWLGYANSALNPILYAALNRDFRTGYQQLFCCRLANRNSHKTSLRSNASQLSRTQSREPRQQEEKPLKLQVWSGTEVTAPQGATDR", "details": "radioligand [^125I]-APT", "excerpt": "(§1) Supplement Table1.docx, table 3: Supplementary Table S3. RG7774 binding to non-CB1R/CB2R receptors, ion channels, transporters, and enzymes (CEREP, Celle l’Evescault, France; http://www.cerep.fr). | column: % inhibition of control SB (n = 2)"}, "D1 (h)": {"biological_target": "D1 (h) (Homo sapiens, UniProt P21728)", "sequence (P21728 whole entry)": "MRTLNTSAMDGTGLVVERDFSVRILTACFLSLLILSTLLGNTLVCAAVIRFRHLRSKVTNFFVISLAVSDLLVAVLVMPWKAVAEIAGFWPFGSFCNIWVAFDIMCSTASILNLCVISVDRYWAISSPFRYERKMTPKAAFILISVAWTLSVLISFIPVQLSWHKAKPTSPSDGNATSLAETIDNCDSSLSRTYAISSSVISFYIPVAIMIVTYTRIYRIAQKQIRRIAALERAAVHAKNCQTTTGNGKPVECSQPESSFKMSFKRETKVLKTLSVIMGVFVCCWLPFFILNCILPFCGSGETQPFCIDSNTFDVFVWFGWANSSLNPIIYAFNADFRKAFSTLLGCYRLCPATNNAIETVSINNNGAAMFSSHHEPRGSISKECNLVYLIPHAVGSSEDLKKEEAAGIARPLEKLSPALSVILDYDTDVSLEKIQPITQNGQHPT", "details": "radioligand [^3H]-SCH 23390", "excerpt": "as §1"}, "Alpha 2 (non-selective)": {"test_system": "Alpha 2 (non-selective)", "details": "radioligand [^3H]-RX 821002", "excerpt": "as §1"}, "H1 (h)": {"biological_target": "H1 (h) (Homo sapiens, UniProt P35367)", "details": "radioligand [^3H]-pyrilamine", "excerpt": "as §1"}, "V1a (h)": {"biological_target": "V1a (h) (Homo sapiens, UniProt P37288)", "sequence (P37288 whole entry)": "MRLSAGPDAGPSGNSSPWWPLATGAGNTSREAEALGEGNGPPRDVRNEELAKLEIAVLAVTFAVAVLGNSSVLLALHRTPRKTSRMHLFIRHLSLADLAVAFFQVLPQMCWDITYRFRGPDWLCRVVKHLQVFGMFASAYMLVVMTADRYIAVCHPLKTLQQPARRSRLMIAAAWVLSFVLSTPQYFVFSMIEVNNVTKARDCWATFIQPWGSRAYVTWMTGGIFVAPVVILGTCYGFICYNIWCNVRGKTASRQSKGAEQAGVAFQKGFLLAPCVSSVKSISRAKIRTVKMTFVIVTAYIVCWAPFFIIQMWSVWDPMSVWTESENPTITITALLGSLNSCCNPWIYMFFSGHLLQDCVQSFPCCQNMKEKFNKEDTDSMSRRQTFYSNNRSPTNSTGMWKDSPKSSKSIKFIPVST", "details": "radioligand [^3H]-AVP", "excerpt": "as §1"}, "5-HT1A (h)": {"biological_target": "5-HT1A (h) (Homo sapiens, UniProt P08908)", "sequence (P08908 whole entry)": "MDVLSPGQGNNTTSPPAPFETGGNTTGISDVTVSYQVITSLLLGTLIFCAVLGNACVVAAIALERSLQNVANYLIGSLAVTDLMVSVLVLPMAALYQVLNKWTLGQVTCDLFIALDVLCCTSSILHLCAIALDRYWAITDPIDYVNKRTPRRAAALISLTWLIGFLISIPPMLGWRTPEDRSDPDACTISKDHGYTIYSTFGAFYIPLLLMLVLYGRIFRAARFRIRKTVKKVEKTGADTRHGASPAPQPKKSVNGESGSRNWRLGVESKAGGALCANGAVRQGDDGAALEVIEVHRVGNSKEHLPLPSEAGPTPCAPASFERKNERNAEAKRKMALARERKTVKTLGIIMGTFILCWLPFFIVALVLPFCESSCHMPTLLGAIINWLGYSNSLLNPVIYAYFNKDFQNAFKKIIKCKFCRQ", "details": "radioligand [^3H]-8-OH-DPAT", "excerpt": "as §1"}, "5-HT3 (h)": {"biological_target": "5-HT3 (h) (Homo sapiens, UniProt P46098)", "sequence (P46098 24-478)": "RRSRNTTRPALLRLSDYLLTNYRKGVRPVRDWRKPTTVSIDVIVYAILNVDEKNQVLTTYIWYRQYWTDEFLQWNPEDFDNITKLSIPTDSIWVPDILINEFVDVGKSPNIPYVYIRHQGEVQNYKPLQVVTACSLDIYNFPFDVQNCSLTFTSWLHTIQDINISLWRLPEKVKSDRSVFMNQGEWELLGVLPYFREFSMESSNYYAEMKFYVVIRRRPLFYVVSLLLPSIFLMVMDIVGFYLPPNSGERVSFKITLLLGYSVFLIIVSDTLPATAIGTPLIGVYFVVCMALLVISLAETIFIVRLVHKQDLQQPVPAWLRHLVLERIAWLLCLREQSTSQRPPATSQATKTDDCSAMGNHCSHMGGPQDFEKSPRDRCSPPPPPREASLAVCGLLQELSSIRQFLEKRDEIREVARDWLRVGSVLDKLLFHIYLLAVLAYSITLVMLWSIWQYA", "details": "radioligand [^3H]-BRL 43694", "excerpt": "as §1"}, "B2 (h)": {"biological_target": "B2 (h) (Homo sapiens, UniProt P30411)", "sequence (P30411 whole entry)": "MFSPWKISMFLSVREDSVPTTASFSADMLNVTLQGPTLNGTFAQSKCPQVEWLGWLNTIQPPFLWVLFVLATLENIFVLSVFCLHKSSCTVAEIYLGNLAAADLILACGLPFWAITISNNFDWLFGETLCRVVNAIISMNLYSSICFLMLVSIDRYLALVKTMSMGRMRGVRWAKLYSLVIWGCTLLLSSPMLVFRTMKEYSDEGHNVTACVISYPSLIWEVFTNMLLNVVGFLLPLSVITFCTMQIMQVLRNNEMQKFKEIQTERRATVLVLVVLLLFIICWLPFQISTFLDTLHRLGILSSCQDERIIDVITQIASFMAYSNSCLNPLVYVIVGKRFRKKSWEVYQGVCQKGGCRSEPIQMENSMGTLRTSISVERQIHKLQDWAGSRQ", "details": "radioligand [^3H]-bradykinin", "excerpt": "as §1"}, "5-HT2A (h)": {"biological_target": "5-HT2A (h) (Homo sapiens, UniProt P28223)", "details": "radioligand [^3H]-ketanserin", "excerpt": "as §1"}, "GABA (non-selective)": {"test_system": "GABA (non-selective)", "details": "radioligand [^3H]-GABA", "excerpt": "as §1"}, "Y2 (h)": {"biological_target": "Y2 (h) (Homo sapiens, UniProt P49146)", "details": "radioligand [^125I]-peptide YY", "excerpt": "as §1"}, "MT1 (ML1A) (h)": {"biological_target": "MT1 (ML1A) (h) (Homo sapiens, UniProt P48039)", "details": "radioligand [^125I]-2-iodomelatonin", "excerpt": "as §1"}, "D3 (h)": {"biological_target": "D3 (h) (Homo sapiens, UniProt P35462)", "details": "radioligand [^3H]-methyl-spiperone", "excerpt": "as §1"}, "GAL1": {"biological_target": "GAL1 (Homo sapiens, UniProt P47211)", "details": "radioligand [^125I]-galanin", "excerpt": "as §1"}, "5-HT2B (h)": {"biological_target": "5-HT2B (h) (Homo sapiens, UniProt P41595)", "details": "radioligand [^125I](±)DOI", "excerpt": "as §1"}, "BZD (central)": {"test_system": "BZD (central)", "details": "radioligand [^3H]-flunitrazepam", "excerpt": "as §1"}, "CB1 (h)": {"biological_target": "CB1 (h) (Homo sapiens, UniProt P21554)", "details": "radioligand [^3H]-CP 55940", "excerpt": "as §1"}, "CGRP (h)": {"biological_target": "CGRP (h) (Homo sapiens, UniProt O60894+Q16602)", "sequence (Q16602 23-461)": "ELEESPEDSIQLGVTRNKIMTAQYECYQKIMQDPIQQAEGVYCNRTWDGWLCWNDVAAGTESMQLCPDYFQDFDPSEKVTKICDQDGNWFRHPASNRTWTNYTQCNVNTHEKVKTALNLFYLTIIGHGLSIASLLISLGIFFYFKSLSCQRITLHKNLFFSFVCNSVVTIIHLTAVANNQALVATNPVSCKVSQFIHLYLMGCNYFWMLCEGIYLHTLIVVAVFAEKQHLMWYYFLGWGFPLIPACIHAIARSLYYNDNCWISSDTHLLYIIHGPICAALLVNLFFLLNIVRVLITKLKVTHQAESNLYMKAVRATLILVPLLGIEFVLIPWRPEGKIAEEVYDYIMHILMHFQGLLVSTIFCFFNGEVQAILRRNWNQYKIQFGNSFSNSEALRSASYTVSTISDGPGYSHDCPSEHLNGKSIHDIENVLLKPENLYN", "sequence (O60894 27-148)": "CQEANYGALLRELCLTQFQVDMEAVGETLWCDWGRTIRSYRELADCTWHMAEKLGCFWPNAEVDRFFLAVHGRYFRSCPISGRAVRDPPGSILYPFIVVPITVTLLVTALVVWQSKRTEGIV", "details": "radioligand [^125I]-hCGRPα", "excerpt": "as §1"}, "CXCR2": {"biological_target": "CXCR2 (Homo sapiens, UniProt P25025)", "details": "radioligand [^125I]-IL-8", "excerpt": "as §1"}, "M5 (h)": {"biological_target": "M5 (h) (Homo sapiens, UniProt P08912)", "sequence (P08912 whole entry)": "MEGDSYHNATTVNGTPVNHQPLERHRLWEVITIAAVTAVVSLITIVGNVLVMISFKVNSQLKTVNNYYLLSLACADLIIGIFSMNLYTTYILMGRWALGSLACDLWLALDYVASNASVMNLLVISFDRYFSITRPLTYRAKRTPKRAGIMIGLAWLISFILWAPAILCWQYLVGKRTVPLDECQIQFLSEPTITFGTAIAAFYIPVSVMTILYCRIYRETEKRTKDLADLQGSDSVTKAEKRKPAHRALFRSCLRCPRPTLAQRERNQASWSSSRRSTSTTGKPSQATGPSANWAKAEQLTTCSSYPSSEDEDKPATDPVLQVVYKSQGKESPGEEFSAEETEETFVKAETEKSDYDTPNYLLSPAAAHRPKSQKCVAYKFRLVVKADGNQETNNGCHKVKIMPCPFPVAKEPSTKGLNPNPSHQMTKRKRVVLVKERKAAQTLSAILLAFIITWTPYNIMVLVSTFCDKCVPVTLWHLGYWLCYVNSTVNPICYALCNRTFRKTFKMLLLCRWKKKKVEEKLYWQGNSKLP", "details": "radioligand [^3H]-4-DAMP", "excerpt": "as §1"}, "PAC1 (PACAP) (h)": {"biological_target": "PAC1 (PACAP) (h) (Homo sapiens, UniProt P41586)", "details": "radioligand [^125I]-PACAP1-27", "excerpt": "as §1"}, "M2 (h)": {"biological_target": "M2 (h) (Homo sapiens, UniProt P08172)", "details": "radioligand [^3H]-AF-DX 384", "excerpt": "as §1"}, "M1 (h)": {"biological_target": "M1 (h) (Homo sapiens, UniProt P11229)", "details": "radioligand [^3H]-pirenzepine", "excerpt": "as §1"}, "MC4 (h)": {"biological_target": "MC4 (h) (Homo sapiens, UniProt P32245)", "details": "radioligand [^125I]-NDP-α-MSH", "excerpt": "as §1"}, "Beta 1 (h)": {"biological_target": "Beta 1 (h) (Homo sapiens, UniProt P08588)", "details": "radioligand [^3H](-)CGP 12177", "excerpt": "as §1"}, "D2S (h)": {"biological_target": "D2S (h) (Homo sapiens, UniProt P14416)", "details": "radioligand [^3H]-methyl-spiperone", "excerpt": "as §1"}, "BZD (peripheral)": {"biological_target": "BZD (peripheral) (Rattus norvegicus, UniProt P16257)", "details": "radioligand [^3H]-PK 11195", "excerpt": "as §1"}, "PPARγ (h)": {"biological_target": "PPARγ (h) (Homo sapiens, UniProt P37231)", "details": "radioligand [^3H]-rosiglitazone", "excerpt": "as §1"}, "CCK2 (CCKB) (h)": {"biological_target": "CCK2 (CCKB) (h) (Homo sapiens, UniProt P32239)", "details": "radioligand [^125I]-CCK-8s", "excerpt": "as §1"}, "PDGF": {"test_system": "PDGF", "details": "radioligand [^125I]-PDGF BB", "excerpt": "as §1"}, "Y1 (h)": {"biological_target": "Y1 (h) (Homo sapiens, UniProt P25929)", "details": "radioligand [^125I]-peptide YY", "excerpt": "as §1"}, "ETB (h)": {"biological_target": "ETB (h) (Homo sapiens, UniProt P24530)", "sequence (P24530 27-442)": "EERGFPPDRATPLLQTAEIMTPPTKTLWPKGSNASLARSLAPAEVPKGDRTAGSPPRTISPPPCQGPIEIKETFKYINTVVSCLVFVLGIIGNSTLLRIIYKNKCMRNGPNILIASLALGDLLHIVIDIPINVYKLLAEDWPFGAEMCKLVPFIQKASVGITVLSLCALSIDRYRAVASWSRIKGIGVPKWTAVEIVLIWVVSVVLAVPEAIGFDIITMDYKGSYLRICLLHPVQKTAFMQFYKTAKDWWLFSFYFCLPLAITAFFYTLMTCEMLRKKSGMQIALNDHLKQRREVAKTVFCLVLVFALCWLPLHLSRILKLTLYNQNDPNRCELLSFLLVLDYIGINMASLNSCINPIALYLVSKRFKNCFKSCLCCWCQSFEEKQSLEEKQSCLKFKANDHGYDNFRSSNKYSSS", "details": "radioligand [^125I]-endothelin-1", "excerpt": "as §1"}, "P2Y": {"test_system": "P2Y", "details": "radioligand [^35S]-dATPαS", "excerpt": "as §1"}, "Alpha 1 (non-selective)": {"test_system": "Alpha 1 (non-selective)", "details": "radioligand [^3H]-prazosin", "excerpt": "as §1"}, "Cl- channel (GABA-gated)": {"test_system": "Cl- channel (GABA-gated)", "details": "radioligand [^35S]-TBPS", "excerpt": "as §1"}, "κ(KOP)": {"biological_target": "κ(KOP) (Rattus norvegicus, UniProt P34975)", "sequence (P34975 whole entry)": "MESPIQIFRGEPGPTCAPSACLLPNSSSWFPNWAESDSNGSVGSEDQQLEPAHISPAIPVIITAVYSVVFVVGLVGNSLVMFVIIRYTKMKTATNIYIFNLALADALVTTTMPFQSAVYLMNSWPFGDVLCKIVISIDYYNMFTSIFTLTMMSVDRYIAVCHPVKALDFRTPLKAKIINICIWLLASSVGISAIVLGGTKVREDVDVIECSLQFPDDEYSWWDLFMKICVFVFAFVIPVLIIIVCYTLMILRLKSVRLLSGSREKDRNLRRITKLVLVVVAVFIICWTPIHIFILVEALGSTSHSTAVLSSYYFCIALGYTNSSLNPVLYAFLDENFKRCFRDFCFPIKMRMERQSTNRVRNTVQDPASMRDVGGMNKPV", "details": "radioligand [^3H]-U 69593", "excerpt": "as §1"}, "AT1 (h)": {"biological_target": "AT1 (h) (Homo sapiens, UniProt P30556)", "sequence (P30556 whole entry)": "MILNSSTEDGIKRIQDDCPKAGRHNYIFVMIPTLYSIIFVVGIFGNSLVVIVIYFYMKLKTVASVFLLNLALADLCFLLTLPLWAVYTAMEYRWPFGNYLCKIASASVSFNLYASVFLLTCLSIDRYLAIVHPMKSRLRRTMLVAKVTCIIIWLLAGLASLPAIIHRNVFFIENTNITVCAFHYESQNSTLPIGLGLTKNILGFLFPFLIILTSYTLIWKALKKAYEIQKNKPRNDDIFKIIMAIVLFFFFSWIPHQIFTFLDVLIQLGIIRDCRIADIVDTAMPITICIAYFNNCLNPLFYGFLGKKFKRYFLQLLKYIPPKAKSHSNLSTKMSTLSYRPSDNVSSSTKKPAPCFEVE", "details": "radioligand [^125I]-[Sar^1,Ile^8]-AT-II", "excerpt": "as §1"}}, "data": [{"smiles": "Cn1nnnc1Cn1nnc2c(N3CC[C@H](O)C3)nc(C(C)(C)C)nc21", "note": "[RG7774, (S)-1-(5-tert-butyl-3-[(1-methyl-1H-tetrazol-5-yl)methyl]-3H-[1,2,3]triazolo[4,5-d]pyrimidin-7-yl)pyrrolidin-3-ol]", "values": [{"measurement": "% inhibition of control SB (n = 2)", "setting": "H2 (h)", "result": "–2.3%"}, {"measurement": "% inhibition of control SB (n = 2)", "setting": "D1 (h)", "result": "–1.0%"}, {"measurement": "% inhibition of control SB (n = 2)", "setting": "Alpha 2 (non-selective)", "result": "–20.9%"}, {"measurement": "% inhibition of control SB (n = 2)", "setting": "H1 (h)", "result": "–8.8%"}, {"measurement": "% inhibition of control SB (n = 2)", "setting": "V1a (h)", "result": 7.5, "unit": "%"}, {"measurement": "% inhibition of control SB (n = 2)", "setting": "5-HT1A (h)", "result": 3.6, "unit": "%"}, {"measurement": "% inhibition of control SB (n = 2)", "setting": "5-HT3 (h)", "result": 1.4, "unit": "%"}, {"measurement": "% inhibition of control SB (n = 2)", "setting": "B2 (h)", "result": "–1.6%"}, {"measurement": "% inhibition of control SB (n = 2)", "setting": "5-HT2A (h)", "result": "–4.8%"}, {"measurement": "% inhibition of control SB (n = 2)", "setting": "GABA (non-selective)", "result": "–16.1%"}, {"measurement": "% inhibition of control SB (n = 2)", "setting": "Y2 (h)", "result": "–3.6%"}, {"measurement": "% inhibition of control SB (n = 2)", "setting": "MT1 (ML1A) (h)", "result": 7.9, "unit": "%"}, {"measurement": "% inhibition of control SB (n = 2)", "setting": "D3 (h)", "result": "–0.3%"}, {"measurement": "% inhibition of control SB (n = 2)", "setting": "GAL1", "result": "–9.1%"}, {"measurement": "% inhibition of control SB (n = 2)", "setting": "5-HT2B (h)", "result": "–24.1%"}, {"measurement": "% inhibition of control SB (n = 2)", "setting": "BZD (central)", "result": "–0.7%"}, {"measurement": "% inhibition of control SB (n = 2)", "setting": "CB1 (h)", "result": "–0.8%"}, {"measurement": "% inhibition of control SB (n = 2)", "setting": "CGRP (h)", "result": 1.7, "unit": "%"}, {"measurement": "% inhibition of control SB (n = 2)", "setting": "CXCR2", "result": "–7.7%"}, {"measurement": "% inhibition of control SB (n = 2)", "setting": "M5 (h)", "result": "–2.7%"}, {"measurement": "% inhibition of control SB (n = 2)", "setting": "PAC1 (PACAP) (h)", "result": "–1.3%"}, {"measurement": "% inhibition of control SB (n = 2)", "setting": "M2 (h)", "result": "–8.7%"}, {"measurement": "% inhibition of control SB (n = 2)", "setting": "M1 (h)", "result": "–15.6%"}, {"measurement": "% inhibition of control SB (n = 2)", "setting": "MC4 (h)", "result": "–14.5%"}, {"measurement": "% inhibition of control SB (n = 2)", "setting": "Beta 1 (h)", "result": "–3.1%"}, {"measurement": "% inhibition of control SB (n = 2)", "setting": "D2S (h)", "result": 12.0, "unit": "%"}, {"measurement": "% inhibition of control SB (n = 2)", "setting": "BZD (peripheral)", "result": "–12.0%"}, {"measurement": "% inhibition of control SB (n = 2)", "setting": "PPARγ (h)", "result": 1.7, "unit": "%"}, {"measurement": "% inhibition of control SB (n = 2)", "setting": "CCK2 (CCKB) (h)", "result": "–7.6%"}, {"measurement": "% inhibition of control SB (n = 2)", "setting": "PDGF", "result": "–5.6%"}, {"measurement": "% inhibition of control SB (n = 2)", "setting": "Y1 (h)", "result": "–5.5%"}, {"measurement": "% inhibition of control SB (n = 2)", "setting": "ETB (h)", "result": "–8.1%"}, {"measurement": "% inhibition of control SB (n = 2)", "setting": "P2Y", "result": 2.3, "unit": "%"}, {"measurement": "% inhibition of control SB (n = 2)", "setting": "Alpha 1 (non-selective)", "result": 6.9, "unit": "%"}, {"measurement": "% inhibition of control SB (n = 2)", "setting": "Cl- channel (GABA-gated)", "result": 17.2, "unit": "%"}, {"measurement": "% inhibition of control SB (n = 2)", "setting": "κ(KOP)", "result": "–12.7%"}, {"measurement": "% inhibition of control SB (n = 2)", "setting": "AT1 (h)", "result": "–5.6%"}]}]}
